Laboratory results from patent publication US12077503B2, “Substituted cyclic amides and their use as herbicides” (FMC CORPORATION, priority 2015, dated 2024).

How the values were obtained:
Assay type in all cases: in vivo
[1] = system: barnyardgrass (Echinochloa crus-galli); assay: Test G Pre-Emergence Protocol; conditions: Echinochloa crus-galli, pre-emergence, 312 h, evaluated after 13 days; for pest or weed control at 15.625 g/ha: 15.625 g ai/ha; for pest or weed control at 15.625 g/ha / pest or weed control at 250 g/ha: read-out: Barnyardgrass damage rating (100=total damage to plant; 0=no damage to plant); for pest or weed control at 62.5 g/ha: 62.5 g ai/ha, 100=total damage to plant, 0=no damage to plant, read-out: Barnyardgrass damage rating; for pest or weed control at 250 g/ha: 250 g ai/ha
Summary of the method: (§1)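 Seeds were sown in standard soil and kept one day in a glasshouse (24/16° C day/night, 14 h light, 65% humidity), then sprayed with compound in acetone/water (50:50) containing 0.5% Tween 20 at 15.625, 62.5 or 250 g/ha. Damage was scored after 13 days (0 = none, 100 = total).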

[2] = system: corn (Zea mays); assay: Test G Pre-Emergence Protocol; conditions: Zea mays, pre-emergence, 312 h, evaluated after 13 days; for plant injury at 15.625 g/ha: 15.625 g ai/ha; for plant injury at 15.625 g/ha / plant injury at 250 g/ha: read-out: Corn damage rating (100=total damage to plant; 0=no damage to plant); for plant injury at 62.5 g/ha: 62.5 g ai/ha, 100=total damage to plant, 0=no damage to plant, read-out: Corn damage rating; for plant injury at 250 g/ha: 250 g ai/ha
Summary of the method: as §1

[3] = system: giant foxtail (Setaria faberi); assay: Test G Pre-Emergence Protocol; conditions: Setaria faberi, pre-emergence, 312 h, evaluated after 13 days; for pest or weed control at 15.625 g/ha: 15.625 g ai/ha; for pest or weed control at 15.625 g/ha / pest or weed control at 250 g/ha: read-out: Foxtail, Giant damage rating (100=total damage to plant; 0=no damage to plant); for pest or weed control at 62.5 g/ha: 62.5 g ai/ha, 100=total damage to plant, 0=no damage to plant, read-out: Foxtail, Giant damage rating; for pest or weed control at 250 g/ha: 250 g ai/ha
Summary of the method: as §1

[4] = system: ivy-leaved morning glory (Ipomoea hederacea); assay: Test G Pre-Emergence Protocol; conditions: Ipomoea, pre-emergence, 312 h, evaluated after 13 days; for pest or weed control at 15.625 g/ha: 15.625 g ai/ha; for pest or weed control at 15.625 g/ha / pest or weed control at 250 g/ha: read-out: Morningglory, Ivy-leaved damage rating (100=total damage to plant; 0=no damage to plant); for pest or weed control at 62.5 g/ha: 62.5 g ai/ha, 100=total damage to plant, 0=no damage to plant, read-out: Morningglory, Ivy-leaved damage rating; for pest or weed control at 250 g/ha: 250 g ai/ha
Summary of the method: as §1

[5] = system: redroot pigweed (Amaranthus retroflexus); assay: Test G Pre-Emergence Protocol; conditions: Amaranthus retroflexus, pre-emergence, 312 h, evaluated after 13 days; for pest or weed control at 15.625 g/ha: 15.625 g ai/ha; for pest or weed control at 15.625 g/ha / pest or weed control at 250 g/ha: read-out: Pigweed, Redroot damage rating (100=total damage to plant; 0=no damage to plant); for pest or weed control at 62.5 g/ha: 62.5 g ai/ha, 100=total damage to plant, 0=no damage to plant, read-out: Pigweed, Redroot damage rating; for pest or weed control at 250 g/ha: 250 g ai/ha
Summary of the method: as §1

[6] = system: velvetleaf (Abutilon theophrasti); assay: Test G Pre-Emergence Protocol; conditions: Abutilon theophrasti, pre-emergence, 312 h, evaluated after 13 days; for pest or weed control at 15.625 g/ha: 15.625 g ai/ha; for pest or weed control at 15.625 g/ha / pest or weed control at 250 g/ha: read-out: Velvetleaf damage rating (100=total damage to plant; 0=no damage to plant); for pest or weed control at 62.5 g/ha: 62.5 g ai/ha, 100=total damage to plant, 0=no damage to plant, read-out: Velvetleaf damage rating; for pest or weed control at 250 g/ha: 250 g ai/ha
Summary of the method: as §1

[7] = system: barnyardgrass (Echinochloa crus-galli); assay: Test G Post-Emergence Protocol; conditions: Echinochloa crus-galli, post-emergence, 312 h, read-out: Barnyardgrass damage rating; for pest or weed control at 15.625 g/ha: 15.625 g ai/ha, evaluated after 13 days (100=total damage to plant; 0=no damage to plant); for pest or weed control at 62.5 g/ha: 62.5 g ai/ha; for pest or weed control at 62.5 g/ha / pest or weed control at 250 g/ha: evaluated after 13 days, 100=total damage to plant, 0=no damage to plant; for pest or weed control at 250 g/ha: 250 g ai/ha
Summary of the method: (§2)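 A glasshouse post-emergence test: 8-day-old plants sprayed at 15.625, 62.5 or 250 g/ha, then grown at 24/16 °C day/night with 14 h light and 65% humidity. Damage rated 13 days later, 0–100.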

[8] = system: corn (Zea mays); assay: Test G Post-Emergence Protocol; conditions: Zea mays, post-emergence, 312 h, read-out: Corn damage rating; for plant injury at 15.625 g/ha: 15.625 g ai/ha, evaluated after 13 days (100=total damage to plant; 0=no damage to plant); for plant injury at 62.5 g/ha: 62.5 g ai/ha; for plant injury at 62.5 g/ha / plant injury at 250 g/ha: evaluated after 13 days, 100=total damage to plant, 0=no damage to plant; for plant injury at 250 g/ha: 250 g ai/ha
Summary of the method: as §2

[9] = system: giant foxtail (Setaria faberi); assay: Test G Post-Emergence Protocol; conditions: Setaria faberi, post-emergence, 312 h, read-out: Foxtail, Giant damage rating; for pest or weed control at 15.625 g/ha: 15.625 g ai/ha, evaluated after 13 days (100=total damage to plant; 0=no damage to plant); for pest or weed control at 62.5 g/ha: 62.5 g ai/ha; for pest or weed control at 62.5 g/ha / pest or weed control at 250 g/ha: evaluated after 13 days, 100=total damage to plant, 0=no damage to plant; for pest or weed control at 250 g/ha: 250 g ai/ha
Summary of the method: as §2

[10] = system: ivy-leaved morning glory (Ipomoea hederacea); assay: Test G Post-Emergence Protocol; conditions: Ipomoea, post-emergence, 312 h, read-out: Morningglory, Ivy-leaved damage rating; for pest or weed control at 15.625 g/ha: 15.625 g ai/ha, evaluated after 13 days (100=total damage to plant; 0=no damage to plant); for pest or weed control at 62.5 g/ha: 62.5 g ai/ha; for pest or weed control at 62.5 g/ha / pest or weed control at 250 g/ha: evaluated after 13 days, 100=total damage to plant, 0=no damage to plant; for pest or weed control at 250 g/ha: 250 g ai/ha
Summary of the method: as §2

[11] = system: redroot pigweed (Amaranthus retroflexus); assay: Test G Post-Emergence Protocol; conditions: Amaranthus retroflexus, post-emergence, 312 h, read-out: Pigweed, Redroot damage rating; for pest or weed control at 15.625 g/ha: 15.625 g ai/ha, evaluated after 13 days (100=total damage to plant; 0=no damage to plant); for pest or weed control at 62.5 g/ha: 62.5 g ai/ha; for pest or weed control at 62.5 g/ha / pest or weed control at 250 g/ha: evaluated after 13 days, 100=total damage to plant, 0=no damage to plant; for pest or weed control at 250 g/ha: 250 g ai/ha
Summary of the method: as §2

[12] = system: velvetleaf (Abutilon theophrasti); assay: Test G Post-Emergence Protocol; conditions: Abutilon theophrasti, post-emergence, 312 h, read-out: Velvetleaf damage rating; for pest or weed control at 15.625 g/ha: 15.625 g ai/ha, evaluated after 13 days (100=total damage to plant; 0=no damage to plant); for pest or weed control at 62.5 g/ha: 62.5 g ai/ha; for pest or weed control at 62.5 g/ha / pest or weed control at 250 g/ha: evaluated after 13 days, 100=total damage to plant, 0=no damage to plant; for pest or weed control at 250 g/ha: 250 g ai/ha
Summary of the method: as §2

Row | Compound | pest or weed control at 15.625 g/ha [1] | pest or weed control at 62.5 g/ha [1] | pest or weed control at 250 g/ha [1] | plant injury at 15.625 g/ha [2] | plant injury at 62.5 g/ha [2] | plant injury at 250 g/ha [2] | pest or weed control at 15.625 g/ha [3] | pest or weed control at 62.5 g/ha [3] | pest or weed control at 250 g/ha [3] | pest or weed control at 15.625 g/ha [4] | pest or weed control at 62.5 g/ha [4] | pest or weed control at 250 g/ha [4] | pest or weed control at 15.625 g/ha [5] | pest or weed control at 62.5 g/ha [5] | pest or weed control at 250 g/ha [5] | pest or weed control at 15.625 g/ha [6] | pest or weed control at 62.5 g/ha [6] | pest or weed control at 250 g/ha [6] | pest or weed control at 15.625 g/ha [7] | pest or weed control at 62.5 g/ha [7] | further results
1 | CN1CC(c2cc(F)c(Cl)c(F)c2)C(C(=O)Nc2cccc(F)c2F)C1=O (stereo not drawn) [Compound 1703] | 50% | 80% | 80% | 0% | 60% | 80% | 80% | 80% | 90% | 0% | 0% | 40% | 0% | 0% | 10% | 0% | 0% | 30% | 50% | 70% | pest or weed control at 250 g/ha [7]: 80%; plant injury at 15.625 g/ha [8]: 0%; plant injury at 62.5 g/ha [8]: 0%; plant injury at 250 g/ha [8]: 80%; pest or weed control at 15.625 g/ha [9]: 70%; pest or weed control at 62.5 g/ha [9]: 70%; pest or weed control at 250 g/ha [9]: 80%; pest or weed control at 15.625 g/ha [10]: 60%; pest or weed control at 62.5 g/ha [10]: 60%; pest or weed control at 250 g/ha [10]: 60%; pest or weed control at 15.625 g/ha [11]: 20%; pest or weed control at 62.5 g/ha [11]: 60%; pest or weed control at 250 g/ha [11]: 80%; pest or weed control at 15.625 g/ha [12]: 10%; pest or weed control at 62.5 g/ha [12]: 40%; pest or weed control at 250 g/ha [12]: 70%
2 | CN1CC(c2ccc(Cl)c([N+](=O)[O-])c2)C(C(=O)Nc2cccc(F)c2F)C1=O (stereo not drawn) [Compound 1685] | 30% | 70% | 80% | 0% | 0% | 60% | 40% | 70% | 90% | 10% | 20% | 30% | 0% | 10% | 60% | 10% | 10% | 30% | 30% | 60% | pest or weed control at 250 g/ha [7]: 80%; plant injury at 15.625 g/ha [8]: 10%; plant injury at 62.5 g/ha [8]: 40%; plant injury at 250 g/ha [8]: 70%; pest or weed control at 15.625 g/ha [9]: 70%; pest or weed control at 62.5 g/ha [9]: 70%; pest or weed control at 250 g/ha [9]: 80%; pest or weed control at 15.625 g/ha [10]: 40%; pest or weed control at 62.5 g/ha [10]: 30%; pest or weed control at 250 g/ha [10]: 70%; pest or weed control at 15.625 g/ha [11]: 40%; pest or weed control at 62.5 g/ha [11]: 50%; pest or weed control at 250 g/ha [11]: 70%; pest or weed control at 15.625 g/ha [12]: 10%; pest or weed control at 62.5 g/ha [12]: 30%; pest or weed control at 250 g/ha [12]: 60%
